Data reported in ChEMBL document CHEMBL5696443 (Clin Cancer Res, 2016).
Active and inactive are the calls of the source. The rule behind the calls is not given here.

Assays:
[1] = target: Tyrosine-protein kinase FRK (Homo sapiens, UniProt P42685); assay: Inhibition of human FRK using RLGRDKYKTLRQIRQ as substrate in presence of [gamma33P]-ATP by HotSpot assay
[2] = target: Aurora kinase C (Homo sapiens, UniProt Q9UQB9); assay: Inhibition of human AURKC using H-LRRASLG as substrate in presence of [gamma33P]-ATP by HotSpot assay
[3] = target: Death-associated protein kinase 2 (Homo sapiens) (UniProt Q9UIK4); assay: Inhibition of human DAPK2 at 1 uM using KKLNRTLSFAEPG as substrate in presence of [gamma33P]-ATP by HotSpot assay relative to control
[4] = target: Protein kinase C beta type (Homo sapiens) (UniProt P05771); assay: Inhibition of human PRKCB at 1 uM using ERMRPRKRQGSVRRRV as substrate in presence of [gamma33P]-ATP by HotSpot assay relative to control
[5] = target: Serine/threonine-protein kinase NLK (Homo sapiens) (UniProt Q9UBE8); assay: Inhibition of human NLK at 1 uM using MBP as substrate in presence of [gamma33P]-ATP by HotSpot assay relative to control
[6] = target: Protein kinase C iota type (Homo sapiens) (UniProt P41743); assay: Inhibition of human PRKCI at 1 uM using ERMRPRKRQGSVRRRV as substrate in presence of [gamma33P]-ATP by HotSpot assay relative to control
[7] = system: EML4-ALK (Homo sapiens), Q9UM73+Q9HC35 [E1210K]; settings: BaF3, time 3-5 weeks
[8] = system: NCI-H23; settings: time 72 hrs
[9] = target: Hepatocyte growth factor receptor (Homo sapiens, UniProt P08581); assay: Inhibition of human MET using poly (Glu, Tyr)4:1 as substrate in presence of [gamma33P]-ATP by HotSpot assay
[10] = target: Serine/threonine-protein kinase Chk1 (Homo sapiens, UniProt O14757); assay: Inhibition of human CHEK1 using KKKVSRSGLYRSPSMPENLNRPR as substrate in presence of [gamma33P]-ATP by HotSpot assay
[11] = target: Proto-oncogene tyrosine-protein kinase receptor Ret (Homo sapiens, UniProt P07949, V804L); assay: Inhibition of human RET V804L mutant using RRRRRRRRRRRVYSTDYYRLFNPS as substrate in presence of [gamma33P]-ATP by HotSpot assay
[12] = target: Focal adhesion kinase 1 (Homo sapiens, UniProt Q05397); assay: Inhibition of human FAK using poly (Glu, Tyr)4:1 as substrate in presence of [gamma33P]-ATP by HotSpot assay
[13] = system: EML4-ALK (Homo sapiens), Q9UM73+Q9HC35 [L1196M]; settings: BaF3, dose 500.0 nmol/L, time 3-5 weeks
[14] = target: Serine/threonine-protein kinase PLK2 (Homo sapiens) (UniProt Q9NYY3); assay: Inhibition of human PLK2 at 1 uM using casein as substrate in presence of [gamma33P]-ATP by HotSpot assay relative to control
[15] = target: Homeodomain-interacting protein kinase 4 (Homo sapiens) (UniProt Q8NE63); assay: Inhibition of human HIPK4 at 1 uM using MBP as substrate in presence of [gamma33P]-ATP by HotSpot assay relative to control
[16] = system: Epidermal growth factor receptor (Homo sapiens), P00533 [L858R]; settings: BaF3, time 72.0 hrs
[17] = system: Protein cereblon/ALK tyrosine kinase receptor/Echinoderm microtubule-associated protein-like 4 (Homo sapiens), Q9UM73+Q9HC35+Q96SW2 [UNDEFINED MUTATION]; settings: BaF3, time 72.0 hrs
[18] = system: EML4-ALK (Homo sapiens), Q9UM73+Q9HC35 [L1152R]; settings: BaF3, time 3-5 weeks
[19] = target: G protein-coupled receptor kinase 5 (Homo sapiens) (UniProt P34947); assay: Inhibition of human GRK5 at 1 uM using casein as substrate in presence of [gamma33P]-ATP by HotSpot assay relative to control
[20] = target: Cyclin-dependent kinase 1/cyclin B1 (Homo sapiens) (UniProt P06493+P14635); assay: Inhibition of human CDK1/CyclinB at 1 uM using RB protein as substrate in presence of [gamma33P]-ATP by HotSpot assay relative to control; assay type: protein-complex assay
[21] = system: Mus musculus; assay: In vivo inhibition of ALK signaling in SCID Beige mouse xenografted with ALK positive human KARPAS-299 cells assessed as reduction in phosphorylated ALK level at 10 to 50 mg/kg, po administered as single dose and measured at 6 to 24 hrs by immunoblot analysis; assay type: functional, organism-based; settings: dose 10-50 mg/kg, time 6-24 hrs
[22] = system: EML4-ALK (Homo sapiens), Q9UM73+Q9HC35 [E1210K]; settings: BaF3, dose 200.0 nmol/L, time 3-5 weeks
[23] = system: U-937; settings: time 72 hrs
[24] = system: Epidermal growth factor receptor (Homo sapiens), P00533 [UNDEFINED MUTATION]; settings: BaF3, time 72.0 hrs
[25] = system: EML4-ALK (Homo sapiens), Q9UM73+Q9HC35 [F1174C]; settings: BaF3, dose 200.0 nmol/L, time 3-5 weeks
[26] = target: Ephrin type-B receptor 2 (Homo sapiens) (UniProt P29323); assay: Inhibition of human EPHB2 at 1 uM using poly (Glu, Tyr)4:1 as substrate in presence of [gamma33P]-ATP by HotSpot assay relative to control
[27] = target: G protein-coupled receptor kinase 3 (Homo sapiens) (UniProt P35626); assay: Inhibition of human ADRBK2 at 1 uM using casein as substrate in presence of [gamma33P]-ATP by HotSpot assay relative to control
[28] = system: EML4-ALK (Homo sapiens), Q9UM73+Q9HC35 [G1202R]; settings: BaF3, dose 500.0 nmol/L, time 3-5 weeks
[29] = target: Interleukin-1 receptor-associated kinase 4 (Homo sapiens) (UniProt Q9NWZ3); assay: Inhibition of human IRAK4 at 1 uM using modified-CGRTGRRNSI-NH2 as substrate in presence of [gamma33P]-ATP by HotSpot assay relative to control
[30] = target: Glycogen synthase kinase-3 beta (Homo sapiens) (UniProt P49841); assay: Inhibition of human GSK3beta at 1 uM using YRRAAVPPSPSLSRHSSPHQ(pS)EDEEE as substrate in presence of [gamma33P]-ATP by HotSpot assay relative to control

Chain of G protein-coupled receptor kinase 3 (Homo sapiens) (P35626 whole entry): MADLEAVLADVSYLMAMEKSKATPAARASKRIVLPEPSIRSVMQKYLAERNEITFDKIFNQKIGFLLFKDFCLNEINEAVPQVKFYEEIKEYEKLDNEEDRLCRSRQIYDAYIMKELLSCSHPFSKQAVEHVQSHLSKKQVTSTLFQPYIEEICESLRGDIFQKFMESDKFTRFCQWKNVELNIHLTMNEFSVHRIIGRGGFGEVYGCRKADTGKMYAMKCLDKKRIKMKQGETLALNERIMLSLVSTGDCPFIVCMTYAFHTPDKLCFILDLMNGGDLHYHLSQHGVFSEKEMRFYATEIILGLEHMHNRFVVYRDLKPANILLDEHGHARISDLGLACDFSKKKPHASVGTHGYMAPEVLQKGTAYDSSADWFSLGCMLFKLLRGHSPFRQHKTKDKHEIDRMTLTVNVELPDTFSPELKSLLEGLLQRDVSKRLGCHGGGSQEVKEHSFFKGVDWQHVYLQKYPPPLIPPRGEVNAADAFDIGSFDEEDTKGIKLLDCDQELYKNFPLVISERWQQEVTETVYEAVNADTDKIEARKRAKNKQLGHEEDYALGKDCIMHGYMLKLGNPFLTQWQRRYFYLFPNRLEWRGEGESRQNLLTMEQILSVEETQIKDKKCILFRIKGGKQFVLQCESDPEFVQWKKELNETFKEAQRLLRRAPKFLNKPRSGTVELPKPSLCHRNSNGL
Chain of Serine/threonine-protein kinase NLK (Homo sapiens) (Q9UBE8 whole entry): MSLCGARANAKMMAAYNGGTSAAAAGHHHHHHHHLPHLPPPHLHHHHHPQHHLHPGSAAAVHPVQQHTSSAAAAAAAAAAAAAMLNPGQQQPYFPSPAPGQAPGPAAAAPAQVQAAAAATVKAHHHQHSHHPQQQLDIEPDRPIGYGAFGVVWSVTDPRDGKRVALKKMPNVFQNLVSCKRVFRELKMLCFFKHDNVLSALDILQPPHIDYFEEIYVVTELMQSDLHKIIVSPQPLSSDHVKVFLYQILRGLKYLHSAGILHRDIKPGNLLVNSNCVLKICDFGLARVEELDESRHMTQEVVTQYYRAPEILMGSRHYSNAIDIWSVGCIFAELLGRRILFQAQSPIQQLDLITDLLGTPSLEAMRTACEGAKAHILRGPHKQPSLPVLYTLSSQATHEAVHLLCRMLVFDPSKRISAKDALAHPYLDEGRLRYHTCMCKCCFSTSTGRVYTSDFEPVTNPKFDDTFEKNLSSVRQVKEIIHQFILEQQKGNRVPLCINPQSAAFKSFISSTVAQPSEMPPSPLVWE
Chain of Proto-oncogene tyrosine-protein kinase receptor Ret (P07949 29-1114 V804L limits assumed): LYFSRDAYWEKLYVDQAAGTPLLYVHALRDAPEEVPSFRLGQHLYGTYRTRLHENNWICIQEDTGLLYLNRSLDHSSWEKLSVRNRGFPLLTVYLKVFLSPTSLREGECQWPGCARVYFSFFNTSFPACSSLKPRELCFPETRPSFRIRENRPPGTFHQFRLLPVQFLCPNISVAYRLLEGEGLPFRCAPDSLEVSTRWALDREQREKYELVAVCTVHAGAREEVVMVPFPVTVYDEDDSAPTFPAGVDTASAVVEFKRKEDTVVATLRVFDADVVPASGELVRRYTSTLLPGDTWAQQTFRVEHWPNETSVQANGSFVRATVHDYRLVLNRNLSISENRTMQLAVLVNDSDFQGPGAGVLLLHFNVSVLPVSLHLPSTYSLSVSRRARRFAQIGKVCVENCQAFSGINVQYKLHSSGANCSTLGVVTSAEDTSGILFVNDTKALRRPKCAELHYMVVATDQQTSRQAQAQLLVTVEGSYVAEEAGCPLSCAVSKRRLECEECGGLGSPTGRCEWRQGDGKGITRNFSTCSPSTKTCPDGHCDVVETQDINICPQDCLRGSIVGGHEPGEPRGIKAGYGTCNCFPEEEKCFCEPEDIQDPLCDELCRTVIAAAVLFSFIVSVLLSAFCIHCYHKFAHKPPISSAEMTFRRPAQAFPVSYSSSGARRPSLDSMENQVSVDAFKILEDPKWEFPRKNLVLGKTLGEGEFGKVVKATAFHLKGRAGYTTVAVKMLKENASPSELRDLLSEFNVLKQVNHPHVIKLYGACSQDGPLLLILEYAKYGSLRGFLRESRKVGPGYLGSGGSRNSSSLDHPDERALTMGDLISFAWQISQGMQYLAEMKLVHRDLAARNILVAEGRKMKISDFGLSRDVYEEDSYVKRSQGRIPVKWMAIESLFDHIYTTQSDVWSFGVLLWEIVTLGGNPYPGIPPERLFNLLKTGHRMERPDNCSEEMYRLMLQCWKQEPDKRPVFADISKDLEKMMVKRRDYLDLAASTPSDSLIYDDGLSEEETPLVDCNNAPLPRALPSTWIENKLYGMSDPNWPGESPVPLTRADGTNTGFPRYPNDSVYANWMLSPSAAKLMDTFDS
Chain of G protein-coupled receptor kinase 5 (Homo sapiens) (P34947 whole entry, looked up): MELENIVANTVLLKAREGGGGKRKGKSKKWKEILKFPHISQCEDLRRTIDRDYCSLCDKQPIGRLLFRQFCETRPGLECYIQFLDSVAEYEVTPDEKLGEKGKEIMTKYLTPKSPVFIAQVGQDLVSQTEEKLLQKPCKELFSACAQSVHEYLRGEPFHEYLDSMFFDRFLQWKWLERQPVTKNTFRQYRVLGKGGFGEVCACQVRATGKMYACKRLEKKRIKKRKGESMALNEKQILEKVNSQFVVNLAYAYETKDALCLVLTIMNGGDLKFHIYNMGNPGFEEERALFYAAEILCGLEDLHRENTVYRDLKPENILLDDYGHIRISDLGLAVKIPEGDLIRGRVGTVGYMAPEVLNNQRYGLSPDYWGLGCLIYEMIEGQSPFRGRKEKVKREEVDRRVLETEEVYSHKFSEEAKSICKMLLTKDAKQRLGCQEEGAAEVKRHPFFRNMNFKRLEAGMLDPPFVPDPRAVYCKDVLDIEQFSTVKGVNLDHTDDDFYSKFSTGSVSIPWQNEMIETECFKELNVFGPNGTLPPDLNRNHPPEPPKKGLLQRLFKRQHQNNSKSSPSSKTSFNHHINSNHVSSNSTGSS
Chain of Ephrin type-B receptor 2 (Homo sapiens) (P29323 whole entry): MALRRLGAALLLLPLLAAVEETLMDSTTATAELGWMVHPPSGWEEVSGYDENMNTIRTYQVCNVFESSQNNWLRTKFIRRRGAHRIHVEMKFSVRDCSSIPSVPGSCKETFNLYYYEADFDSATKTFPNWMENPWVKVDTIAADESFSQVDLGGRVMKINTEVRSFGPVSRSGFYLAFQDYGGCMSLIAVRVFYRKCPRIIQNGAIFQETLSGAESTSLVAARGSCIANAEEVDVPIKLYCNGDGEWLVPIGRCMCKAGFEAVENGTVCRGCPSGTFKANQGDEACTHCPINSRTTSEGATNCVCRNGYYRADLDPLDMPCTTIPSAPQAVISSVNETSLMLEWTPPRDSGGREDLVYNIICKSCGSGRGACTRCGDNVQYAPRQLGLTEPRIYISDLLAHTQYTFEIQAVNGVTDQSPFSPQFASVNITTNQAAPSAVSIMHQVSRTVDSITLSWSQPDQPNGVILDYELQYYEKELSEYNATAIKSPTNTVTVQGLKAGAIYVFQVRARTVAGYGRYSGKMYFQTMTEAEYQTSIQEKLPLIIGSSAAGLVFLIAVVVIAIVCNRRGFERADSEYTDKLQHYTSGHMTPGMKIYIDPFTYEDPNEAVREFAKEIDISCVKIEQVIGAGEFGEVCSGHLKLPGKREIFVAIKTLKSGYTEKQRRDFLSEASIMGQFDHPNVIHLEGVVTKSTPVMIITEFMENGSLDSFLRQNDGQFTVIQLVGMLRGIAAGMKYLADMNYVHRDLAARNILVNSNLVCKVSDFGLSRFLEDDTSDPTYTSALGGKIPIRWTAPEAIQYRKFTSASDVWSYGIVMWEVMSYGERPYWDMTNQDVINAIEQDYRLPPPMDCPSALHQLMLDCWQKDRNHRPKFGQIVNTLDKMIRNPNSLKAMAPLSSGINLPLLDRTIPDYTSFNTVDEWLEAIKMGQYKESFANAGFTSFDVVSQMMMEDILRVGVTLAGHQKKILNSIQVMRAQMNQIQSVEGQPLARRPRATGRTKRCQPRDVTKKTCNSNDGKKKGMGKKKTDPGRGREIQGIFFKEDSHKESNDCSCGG
Chain of Cyclin-dependent kinase 1/cyclin B1 (Homo sapiens) (P06493 whole entry, looked up): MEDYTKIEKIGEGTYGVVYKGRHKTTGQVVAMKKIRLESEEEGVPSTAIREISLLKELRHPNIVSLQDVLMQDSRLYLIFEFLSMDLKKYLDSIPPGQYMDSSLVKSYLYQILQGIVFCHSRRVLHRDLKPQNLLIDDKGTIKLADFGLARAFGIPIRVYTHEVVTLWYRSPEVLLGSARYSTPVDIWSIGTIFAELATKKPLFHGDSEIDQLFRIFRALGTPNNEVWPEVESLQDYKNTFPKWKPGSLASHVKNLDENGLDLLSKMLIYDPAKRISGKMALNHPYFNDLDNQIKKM
Chain of Cyclin-dependent kinase 1/cyclin B1 (Homo sapiens) (P14635 whole entry, looked up): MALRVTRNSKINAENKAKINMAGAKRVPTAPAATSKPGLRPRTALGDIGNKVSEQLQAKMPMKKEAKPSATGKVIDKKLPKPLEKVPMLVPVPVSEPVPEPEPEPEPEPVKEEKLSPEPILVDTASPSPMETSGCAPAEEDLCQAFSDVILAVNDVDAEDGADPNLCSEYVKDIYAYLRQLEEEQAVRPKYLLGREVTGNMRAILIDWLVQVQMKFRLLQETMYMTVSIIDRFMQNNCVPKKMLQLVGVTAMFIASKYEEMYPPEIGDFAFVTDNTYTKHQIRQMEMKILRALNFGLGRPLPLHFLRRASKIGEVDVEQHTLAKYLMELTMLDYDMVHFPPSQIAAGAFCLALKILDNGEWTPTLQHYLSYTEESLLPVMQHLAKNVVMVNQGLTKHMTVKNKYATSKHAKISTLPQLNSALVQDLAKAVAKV
Chain of Aurora kinase C (Q9UQB9 whole entry): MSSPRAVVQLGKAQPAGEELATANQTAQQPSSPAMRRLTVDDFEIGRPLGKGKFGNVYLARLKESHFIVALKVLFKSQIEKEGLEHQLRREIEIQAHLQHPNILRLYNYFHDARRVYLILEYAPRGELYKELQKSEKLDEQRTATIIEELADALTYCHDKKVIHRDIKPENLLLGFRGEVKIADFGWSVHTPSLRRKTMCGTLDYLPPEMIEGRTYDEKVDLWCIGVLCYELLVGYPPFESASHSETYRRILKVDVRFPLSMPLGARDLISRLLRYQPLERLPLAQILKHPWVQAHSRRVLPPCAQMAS

Compound: COc1cc(N2CCC(N3CCN(C)CC3)CC2)ccc1Nc1ncc(Cl)c(Nc2ccccc2P(C)(C)=O)n1 [BRIGATINIB]
- IC50 [1]: 52 nM
- IC50 [2]: > 1000 nM
- inhibition [3]: < 90%
- inhibition [4]: < 90%
- inhibition [5]: < 90%
- inhibition [6]: < 90%
- IC90 [7]: 366 nM
- GI50 [8]: 1340 nM
- IC50 [9]: > 1000 nM
- IC50 [10]: 30 nM
- IC50 [11]: 27 nM
- IC50 [12]: 3.9 nM
- inhibition [13]: Active
- inhibition [14]: < 90%
- inhibition [15]: < 90%
- IC90 [16]: 1200 nM
- IC90 [17]: 38 nM
- IC90 [18]: 34 nM
- inhibition [19]: < 90%
- inhibition [20]: < 90%
- Activity [21]: Active
- inhibition [22]: inactive
- GI50 [23]: 2390 nM
- IC90 [24]: 2460 nM
- inhibition [25]: inactive
- inhibition [26]: < 90%
- inhibition [27]: < 90%
- inhibition [28]: Active
- inhibition [29]: < 90%
- inhibition [30]: < 90%
